Source: patent US6034097A, “Isoquinolines useful as analgesics” (Astra AB, priority 1996, dated 2000)
Structures can show the parent of a compound that is named as a salt.

Assays:
μ receptors [1] = target: T1, μ receptors (Rattus norvegicus, UniProt P33535); experiment: Radioligand binding assay, μ receptor, (3H)-DAMGO, rat brain membranes; settings: Ki from IC50 by Cheng and Prusoff
T1 construct: the brains minus cerebellum were removed and place in ice-cold saline solution and then homogenized; from tissue; host or cells: rat brain minus cerebellum, membrane homogenate
Protocol: (§1) PBQ (phenyl-.rho.-benzoquinone) induced writhing in mice is an assessment of both central and peripheral analgesia. For experimental protocol see Sigmund et al., Proc. Soc. Exp. Biol. Med., 15, p. 729(1957) which is incorporated herein by reference. Central analgesia is determined by the inhibition of a hot-plate response in mice. For experimental protocol see G. Woolfe and A. Macdonald, J. Pharmacol. Exp. Ther., 80, p.300 (1944) which is incorporated herein by reference. Assays measuring opioid receptor binding affinities for μ and δ receptors as well as GPI and MVD assays are determined through experimental protocol set out in Schiller et al., Biophys. Res. Commun., 85, p.1322 (1975) incorporated herein by reference.
(§2) Male Sprague-Dawley rats weighing between 350-450 g were sacrificed by inhalation of CO2. The rats were decapitated and the brains minus cerebellum were removed and place in ice-cold saline solution and then homogenized in ice-cold 50 mM Tris buffer pH 7.4 (10 ml/brain). The membranes were centrifuged at 14000 rpm for 30 min. at 4° C. The pellets were re-suspended in approximately 6 ml/brain of ice-cold Tris buffer 50 mM pH 7.4 and stored at -78° C. until ready for use. Protein quantification of the brain homogenate was conducted according to protein assay kit purchased (Bio-Rad).
(§3) (^3 H)-DAMGO and (^3 H) DAGLE were used as radioligands for the μ and δ receptors, respectively. Radioligand 50 μl, membranes 100 μl and serially diluted test compound were incubated for 1 hr at 22° C. Non specific binding was determined using 500 fold excess of unlabeled ligand in the presence of tracer and membranes. Free ligand was separated from bound by filtration through Whatman GF/B paper (presoaked in polyethylenimine 1% aqueous solution) and rinsing with ice-cold 50 mM Tris pH 7.4 using a Brandel cell harvester. The filters were dried and radioactivity was counted in a 24 well microplate in the presence of […] scintillant per well. Radioactivity was measured using a Wallac 1450 Microbeta counter.
(§4) Ki's for the various compounds were determined from the IC50 according to the Cheng and Prusoff equation.

δ receptors = target: T2, δ receptors (Rattus norvegicus, UniProt P33533); experiment: Radioligand binding assay, δ receptor, (3H) DAGLE, rat brain membranes; settings: Ki from IC50 by Cheng and Prusoff
T2 construct: the brains minus cerebellum were removed and place in ice-cold saline solution and then homogenized; from tissue; host or cells: rat brain minus cerebellum, membrane homogenate
Protocol: as §1, §2
as §3, with “Free ligand was separated from bound by filtration through Whatman GF/B paper (presoaked in polyethylenimine 1% aqueous solution) and rinsing with ice-cold 50 mM Tris pH 7.4 using a Brandel cell harvester.” left out
as §4

κ receptor = target: T3, κ receptor (Rattus norvegicus, UniProt P34975); experiment: Radioligand binding assay, κ receptor (Table 1); settings: binding inhibition constant
T3 construct: from tissue

μ receptors [2] = experiment: Guinea Pig Ileum (GPI) assay, longitudinal muscle preparation; assay type: cell-based
Protocol: (§5) The opioid activity of the peptides was assessed in vitro using the guinea pig ileum (GPI) longitudinal muscle preparation and their antinociceptive activity was determined in vivo in PBQ induced writhing models (peripheral activity) and in the hot-plate test (central activity) in rodents. […] Peripheral analgesia is shown by a high potency in the writhing test coupled with a low potency in the hot-plate test.
as §1
The activity of the peptide compounds on μ receptors was determined using the Guinea Pig Ileum (GPI) assay (longitudinal muscle preparation) according to the procedures described in Schiller et al., Biophys. Res. Commun., 85, p.1322 (1975).

CD #1 male mice = experiment: PBQ (phenylquinone) induced writhing assay in mice; assay type: in vivo; settings: compound by subcutaneous route, dose inducing 50% reduction in number of writhes vs control
Protocol: The term "ED50 " as shown in table 1 for the PBQ writhing assays is defined as the dose of drug which induces a 50% reduction in the number of writhes observed compared to the control. The term "ED50 " used in the hot-plate assays is defined as the dose of drug required to increase the latency of response 2-fold compared to controls and was determined by parallel-line probit analysis.
as §5, §1
The test was performed on CD #1 male mice weighing between 18 and 22 g. The mice were weighed and marked. They were injected, by intra-peritoneal route, with 0.3 ml/20 g by weight with a solution of phenylquinone at 0.02%. The contortions which appeared during a 15 minute time period following the injection were counted. The phenylquinone was injected at time intervals of 5, 20 or 60 minutes after administration of the compound (or medium, or standard) by subcutaneous route.
The 0.02% phenylquinone solution was prepared in the following fashion. […]

[3] = In vitro stability in rat whole blood (RWB) at 37° C.; assay type: in vitro ADME
Protocol: (§6) In vitro stability of the compounds of the invention in rat whole blood (RWB) at 37° C. and in kidney brush border protease (KBBP) at 37° C.
The compound was initially dissolved in water or in 10% methyl sulfoxide (DMSO)/water to make a stock solution of 10 mg/ml.
The stock solution was added to 15 ml of freshly harvested rat whole blood and incubated at 37° C.
Blanks were prepared without spiking with compounds in rat whole blood.
Aliquots were then taken at specific time intervals, centrifuged, and a fraction of the supernatant was extracted with acetonitrile or with a solution of acetonitrile and 10% acetic acid.
The solvent(s) was(were) removed by evaporation. The resulting residue was analyzed by HPLC.

[4] = test system: kidney brush border protease (KBBP); experiment: In vitro stability in kidney brush border protease (KBBP) at 37° C.; assay type: in vitro ADME; settings: PBS pH 7.4, 37° C.; for Metabolites in KBBP: up to 1440 minutes
Protocol: as §6
1.0 mg of the compounds were dissolved in 1 ml PBS pH 7.4 and 500 µL of proteases (1.14 mg of protein/ml) were added.
An initial aliquot was taken at time 0, and the reaction was immediately stopped by placing the sample in a bath of boiling water for 2 minutes (the other time intervals were 5, 15, 30, 60, 120, 1440 minutes).
Blank samples without compounds were also prepared.
The aliquoted samples were filtered on a micron 0.45 filter and the resulting sample were analyzed by HPLC.

T2 sequence (P33533 whole entry): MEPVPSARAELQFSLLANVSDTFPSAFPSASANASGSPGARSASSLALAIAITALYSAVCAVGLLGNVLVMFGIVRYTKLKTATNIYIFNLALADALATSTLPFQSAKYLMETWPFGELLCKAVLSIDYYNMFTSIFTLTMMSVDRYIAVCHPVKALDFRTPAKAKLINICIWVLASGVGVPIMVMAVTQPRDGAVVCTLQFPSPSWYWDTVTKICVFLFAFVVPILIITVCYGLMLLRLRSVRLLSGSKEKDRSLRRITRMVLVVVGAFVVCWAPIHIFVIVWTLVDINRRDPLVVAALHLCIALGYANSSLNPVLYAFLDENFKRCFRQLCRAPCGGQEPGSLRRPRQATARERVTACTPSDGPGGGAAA
T3 sequence (P34975 whole entry): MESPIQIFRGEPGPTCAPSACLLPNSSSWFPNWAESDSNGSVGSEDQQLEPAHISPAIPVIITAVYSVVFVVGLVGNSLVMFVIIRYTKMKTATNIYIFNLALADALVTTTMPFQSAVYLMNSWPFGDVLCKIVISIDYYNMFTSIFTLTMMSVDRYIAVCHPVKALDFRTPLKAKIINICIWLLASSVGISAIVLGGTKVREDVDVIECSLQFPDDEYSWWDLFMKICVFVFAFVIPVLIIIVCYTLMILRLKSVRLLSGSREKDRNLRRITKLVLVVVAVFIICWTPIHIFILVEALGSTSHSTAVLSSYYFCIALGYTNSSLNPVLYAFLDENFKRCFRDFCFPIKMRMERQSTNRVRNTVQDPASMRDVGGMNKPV
T1 sequence (P33535 whole entry): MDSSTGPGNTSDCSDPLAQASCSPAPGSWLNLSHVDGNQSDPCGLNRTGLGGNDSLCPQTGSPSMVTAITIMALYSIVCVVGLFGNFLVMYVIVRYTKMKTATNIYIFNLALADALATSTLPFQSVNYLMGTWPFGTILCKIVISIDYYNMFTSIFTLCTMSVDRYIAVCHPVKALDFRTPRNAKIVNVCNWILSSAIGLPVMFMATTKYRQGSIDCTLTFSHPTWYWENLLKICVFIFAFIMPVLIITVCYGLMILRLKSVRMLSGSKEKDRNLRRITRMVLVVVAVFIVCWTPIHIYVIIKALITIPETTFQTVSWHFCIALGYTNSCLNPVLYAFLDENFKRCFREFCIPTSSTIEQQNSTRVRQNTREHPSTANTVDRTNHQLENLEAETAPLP

| SMILES | Ki (δ receptors) [nM] | IC50 (μ receptors [2]) [nM] | ED50 PBQ writhing (CD #1 male mice) [mg/kg] | Metabolites in RWB [3] | half life in RWB [3] [h] | half life in KBBP [4] [h] | Metabolites in KBBP [4] | other results |
| --- | --- | --- | --- | --- | --- | --- | --- | --- |
| Cc1cc(O)cc(C)c1C[C@H](N)C(=O)N1Cc2ccccc2C[C@H]1C(=O)NCC(O)Cc1ccccc1.O=C(O)C(F)(F)F (stereo partly drawn) [4B, 2-S-(2-Amino-3-(4-hydroxy-2,6-dimethyl-phenyl)-propionyl)-1,2,3,4-tetrahydro-isoquinoline-3-S-carboxylic acid (2-hydroxy-3-phenyl-propyl)amide trifluoroacetic salt] | 0.1 ± 0.02 | 13.8 | 16.6 | none detected | > 5.32 | > 24 | none detected | Ki (μ receptors [1]): 0.7 ± 0.27 nM; Ki (κ receptor): 20.6 ± 0.5 nM |
| Cc1cc(O)cc(C)c1CC(NC(=N)N)C(=O)N1Cc2ccccc2C[C@H]1C(=O)NC[C@H](O)Cc1ccccc1 (some centres unmarked) [compound #3, 2-(2-Guanidino-3-(4-hydroxy-2,6-dimethyl-phenyl)-propionyl)-1,2,3,4-tetrahydro-isoquinoline-3-S-carboxylic acid (2-R-hydroxy-3-phenyl-propyl)-amide ditrifloroacetic salt] | 0.56 ± 0.09 |  |  |  |  |  |  | Ki (μ receptors [1]; listed as #3): 2.03 ± 0.37 nM; Ki (κ receptor; listed as #3): 277 ± 13.6 nM |
| Cc1cc(O)cc(C)c1CC(NC(=N)N)C(=O)N1Cc2ccccc2C[C@H]1C(=O)NC[C@H](O)Cc1ccccc1.O=C(O)C(F)(F)F.O=C(O)C(F)(F)F (some centres unmarked) [compound #3A, 2-(2-Guanidino-3-(4-hydroxy-2,6-dimethyl-phenyl)-propionyl)-1,2,3,4-tetrahydro-isoquinoline-3-S-carboxylic acid (2-R-hydroxy-3-phenyl-propyl)-amide ditrifloroacetic salt] |  |  | 3.8 |  |  |  |  | Ki (μ receptors [1]; listed as #3A): 2.94 ± 0.73 nM; Ki (κ receptor; listed as #3A): 952 ± 122 nM |
| Cc1cc(O)cc(C)c1CC(NC(=N)N)C(=O)N1Cc2ccccc2C[C@H]1C(=O)NC[C@H](O)Cc1ccccc1 (some centres unmarked) [compound #3B, 2-(2-Guanidino-3-(4-hydroxy-2,6-dimethyl-phenyl)-propionyl)-1,2,3,4-tetrahydro-isoquinoline-3-S-carboxylic acid (2-R-hydroxy-3-phenyl-propyl)-amide ditrifloroacetic salt] |  | 7.3 |  |  |  |  |  | Ki (μ receptors [1]; listed as #3B): 0.5 nM; Ki (κ receptor; listed as #3B): 164 ± 17.5 nM |
| Cc1cc(O)cc(C)c1C[C@H](N)C(=O)N1Cc2ccccc2C[C@H]1C(=O)NCC(O)Cc1ccccc1.O=C(O)C(F)(F)F (stereo partly drawn) [compound #4A, 2-S-(2-Amino-3-(4-hydroxy-2,6-dimethyl-phenyl)-propionyl)-1,2,3,4-tetrahydro-isoquinoline-3-S-carboxylic acid (2-hydroxy-3-phenyl-propyl)amide trifluoroacetic salt] |  |  |  | none detected | > 2.1 | > 24 | 1 detected after |  |
| Cc1cc(O)cc(C)c1CC(N)C(=O)N1Cc2ccccc2C[C@H]1C(=O)NCCCc1ccccc1.O=C(O)C(F)(F)F (some centres unmarked) [compound #5A, 2-(2-Amino-3-(4-Hydroxy-2,6-dimethyl-phenyl)-propionyl)-1,2,3,4-tetrahydro-isoquinoline-3-S-carboxylic acid (3-phenyl-propyl)amide trifluoroacetic salt] |  |  |  | none detected | > 24 | > 24 | none detected |  |
| Cc1cc(O)cc(C)c1CC(N)C(=O)N1Cc2ccccc2CC1C(=O)NCCCc1ccccc1.O=C(O)C(F)(F)F (centres unmarked) [compound #5B, 2-(2-Amino-3-(4-Hydroxy-2,6-dimethyl-phenyl)-propionyl)-1,2,3,4-tetrahydro-isoquinoline-3-carboxylic acid (3-phenyl-propyl)amide trifluoroacetic salt] |  |  |  | none detected | > 20 | > 24 | none detected |  |
| Cc1cc(O)cc(C)c1CC(N)C(=O)N1Cc2ccccc2C[C@H]1C(=O)NCCCc1ccccc1.O=C(O)C(F)(F)F (some centres unmarked) [compound #6A, 2-(2-Amino-3-(4-Hydroxy-2,6-dimethyl-phenyl)-propionyl)-1,2,3,4-tetrahydro-isoquinoline-3-S-carboxylic acid (3-phenyl-propyl)amide trifluoroacetic salt] | 0.84 ± 0.08 | 5.1 | 2.4 |  |  |  |  | Ki (μ receptors [1]): 0.11 ± 0.02 nM; Ki (κ receptor): 49.6 ± 8.7 nM |
